{"source": "patent US7342018B2", "about": "“Urokinase inhibitors and uses thereof” (Wilex AG, priority 1998, dated 2008)", "key": {"Plasma kallikrein": {"target": "Plasma kallikrein (Homo sapiens, UniProt P03952)", "sequence (P03952 20-638, species assumed)": "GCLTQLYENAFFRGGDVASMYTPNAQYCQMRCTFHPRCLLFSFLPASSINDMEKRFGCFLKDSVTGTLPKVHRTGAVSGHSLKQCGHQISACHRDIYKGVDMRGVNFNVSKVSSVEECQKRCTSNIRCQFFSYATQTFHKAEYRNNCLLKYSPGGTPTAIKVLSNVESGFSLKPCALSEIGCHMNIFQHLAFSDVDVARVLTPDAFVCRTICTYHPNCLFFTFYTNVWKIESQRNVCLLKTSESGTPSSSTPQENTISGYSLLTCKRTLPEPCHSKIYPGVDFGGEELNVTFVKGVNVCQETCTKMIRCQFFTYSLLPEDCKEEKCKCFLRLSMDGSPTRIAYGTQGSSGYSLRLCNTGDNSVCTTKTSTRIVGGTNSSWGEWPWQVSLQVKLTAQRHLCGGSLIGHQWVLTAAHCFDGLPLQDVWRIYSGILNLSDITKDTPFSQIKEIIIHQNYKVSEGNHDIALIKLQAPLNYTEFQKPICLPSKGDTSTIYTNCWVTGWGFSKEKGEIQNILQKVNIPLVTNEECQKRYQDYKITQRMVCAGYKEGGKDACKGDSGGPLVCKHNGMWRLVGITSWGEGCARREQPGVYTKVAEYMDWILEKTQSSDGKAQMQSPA", "assay": "In vitro inhibition of serine proteases: plasma kallikrein", "type": "biochemical", "procedure": "(§1) To determine the inhibitory activity, 200 μl of Tris buffer (0.05 mol/l, containing the inhibitor, 0.154 mol/l NaCl, 5% ethanol pH 8.0), 25 μl of substrate (Pefachrome UK or Bz-βAla-Gly-Arg-pNA in H2O; Pentapharm Ltd., Basle, Switzerland) and 50 μl of sc-urokinase (Ribosepharm GmbH, Haan, Germany) were incubated at 25° C. After 3 min the reaction was stopped by adding 25 μl of acetic acid (50%), and the absorption at 405 nm was determined by means of a Microplate Reader (MR 5000, Dynatech, Denkendorf, Germany). Ki values were determined according to Dixon by linear regression using a computer program. The Ki values are the mean values of at least three determinations with a standard deviation of less than 25%.\n(§2) The inhibition activities of the enzymes used were determined according to the principle described in Example 3."}, "[1]": {"assay": "Solubility in Tris buffer", "settings": "Tris buffer (pH 7.3)"}, "[2]": {"target": "Sc-tPA (single chain tPA) (Homo sapiens, UniProt P00750)", "sequence (P00750 36-562)": "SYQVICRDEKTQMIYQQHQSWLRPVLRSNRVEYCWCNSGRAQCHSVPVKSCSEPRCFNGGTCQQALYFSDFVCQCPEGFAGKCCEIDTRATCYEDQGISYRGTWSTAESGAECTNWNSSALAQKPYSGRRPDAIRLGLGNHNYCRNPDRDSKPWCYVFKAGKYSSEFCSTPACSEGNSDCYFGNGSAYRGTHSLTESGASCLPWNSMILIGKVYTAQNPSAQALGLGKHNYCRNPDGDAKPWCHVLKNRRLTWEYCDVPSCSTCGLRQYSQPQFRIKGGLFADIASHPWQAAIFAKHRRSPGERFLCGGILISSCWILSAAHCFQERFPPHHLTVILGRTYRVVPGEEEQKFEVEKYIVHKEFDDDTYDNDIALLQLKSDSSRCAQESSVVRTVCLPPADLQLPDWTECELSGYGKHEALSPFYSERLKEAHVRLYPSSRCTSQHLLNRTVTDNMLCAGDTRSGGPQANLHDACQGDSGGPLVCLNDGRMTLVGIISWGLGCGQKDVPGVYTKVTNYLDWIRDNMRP", "assay": "In vitro inhibition of serine proteases: Sc-tPA", "type": "biochemical", "procedure": "as §1, §2"}, "[3]": {"system": "BN-472 rat mammary carcinoma", "assay": "BN-472 rat mammary carcinoma model, single agent and combination with cytotoxics (Example 11)", "description": "WX-UK1 was dissolved in 5% w/v of D-mannitol to the appropriate dosage and administered once daily or twice weekly either subcutaneously (s.c.) or intraperitonally (i.p.).\nEpirubicin (0.75-3 mg/kg body wight), paclitaxel (5-7.5 mg/kg) or 5-FU (20 and 40 mg/kg) was given once weekly by i.v. injection into the external jugular vein.\nControl rats received the vehicle 5% w/v of D-mannitol once daily s.c.\nA donor rat bearing a tumor of 20×20 mm was sacrificed, the tumor harvested ant the cortex part was sliced into cubes of approximately 10 mm^3 and the transplated orthotopically under the mammary fad pads of female Brown Norway rats.\nTreatment was started three or six days (5-FU experiment) after tumor inoculation. Each treatment group consisted of 15 to 21 rats.\nTumor load is plotted as the average±standard error of the mean (SEM).\nTumor, organ weights as well as lung foci counts are presented in Box-Whisker graphs. […] Whiskers extend to the extreme lower 5th and upper 95th percentiles of values. Dots represent individual data.\nP-values represent significance levels of pairwise comparisons of treatment groups versus vehicle control. For combination therapy experiments the P-values for the comparison of a cytostatic mono-therapy versus the combination therapy is given."}, "Urokinase (sc-urokinase)": {"target": "T1, Urokinase (sc-urokinase) (Homo sapiens, UniProt P00749)", "T1 construct": "purchased Ribosepharm GmbH, Haan, Germany", "assay": "In vitro inhibition of urokinase (chromogenic substrate, Dixon Ki)", "type": "biochemical", "procedure": "as §1"}, "[4]": {"system": "BN-472 breast cancer tumor", "assay": "Breast cancer model in rats (Example 7)", "type": "in vivo", "settings": "for average tumor weights at the end of the treatment, reduced to % of vehicle-treated control / mean weights of the axillary lymph nodes, reduced to % of control / number of lung foci, reduced to % of control: 1 mg/kg daily", "procedure": "10-25 mm^3 of BN-472 breast cancer tumor fragments from rats were transplanted into female brown Norwegian rats from 6 to 7 weeks old, subcutaneously and orthotopically under the subcutaneous fat of the mammary gland (Day 0). The treatment of the animals was started intraperitoneally 24 hours after tumor inoculation. Each group consisted of eight animals. The control group received only the injection solution (100 μl of a 10% ethanol/saline (0.9% NaCl) solution). A dose of 1 mg/kg body weight was intraperitoneally administered on a daily basis to the comparative group of the naphthyl derivative. (B) and to the therapy group of the inventive uPA inhibitor (A). The treatment was carried out over a period of 4 weeks.\nThe dimensions of the subcutaneous tumors and the weight of the animals were determined weekly. At the end of the treatment the animals were sacrificed and tumor weights, organ weights and the number of metastases in relevant tissues were determined.\nThe experiments described in sections A and B were repeated with the inhibitor administered in a different way. For this, the inhibitor was administered subcutaneously in the breast carcinoma model (n=9) and intraperitoneally in the pancreatic adenocarcinoma model (n=8) without changing the daily dose. The results of these repeat experiments corresponded to the results already discussed, both in tendency and extent."}, "Plasmin": {"target": "T2, Plasmin (Homo sapiens, UniProt P00747)", "T2 construct": "uPA mediates the proteolytic cleavage of plasminogen to give plasmin", "T2 sequence (P00747 581-810 limits assumed, species assumed)": "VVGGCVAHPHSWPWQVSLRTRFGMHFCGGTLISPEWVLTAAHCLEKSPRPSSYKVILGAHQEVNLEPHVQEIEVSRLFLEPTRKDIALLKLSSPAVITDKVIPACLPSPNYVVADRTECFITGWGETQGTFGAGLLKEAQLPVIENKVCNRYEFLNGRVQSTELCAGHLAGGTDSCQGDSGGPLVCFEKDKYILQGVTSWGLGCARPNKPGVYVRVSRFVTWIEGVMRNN", "T2 sequence (P00747 97-580 partner limits assumed, species assumed)": "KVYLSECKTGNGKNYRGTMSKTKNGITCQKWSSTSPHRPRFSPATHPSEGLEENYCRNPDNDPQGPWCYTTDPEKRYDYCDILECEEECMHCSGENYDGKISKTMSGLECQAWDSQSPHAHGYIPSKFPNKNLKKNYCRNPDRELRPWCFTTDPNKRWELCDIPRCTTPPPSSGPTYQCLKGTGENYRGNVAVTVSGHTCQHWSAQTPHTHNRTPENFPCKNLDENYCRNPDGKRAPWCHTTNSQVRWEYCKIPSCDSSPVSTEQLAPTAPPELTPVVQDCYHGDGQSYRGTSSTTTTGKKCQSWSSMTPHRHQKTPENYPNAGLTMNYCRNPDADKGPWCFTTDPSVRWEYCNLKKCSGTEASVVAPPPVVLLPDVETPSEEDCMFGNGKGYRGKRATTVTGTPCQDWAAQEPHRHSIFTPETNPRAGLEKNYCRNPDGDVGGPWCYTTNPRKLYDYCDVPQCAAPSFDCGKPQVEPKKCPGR", "assay": "In vitro inhibition of serine proteases: plasmin", "type": "biochemical", "procedure": "(§3) Ki values were determined according to Dixon by linear regression using a computer program."}, "Thrombin": {"target": "Thrombin (Homo sapiens, UniProt P00734)", "assay": "In vitro inhibition of serine proteases: thrombin", "type": "biochemical", "procedure": "as §3"}, "[5]": {"system": "human breast carcinoma cells", "assay": "Fibrin matrix degradation assay (D dimer ELISA)", "type": "cell-based", "settings": "different concentrations, 4 h (FIG. 2)", "procedure": "To study the potential of tumor cells for breaking down an extracellular matrix, a fibrin matrix degradation assay was developed and used. A greater proteolytic activity of the tumor cells leads to a higher concentration of fibrin degradation products in the matrix supernatant. The matrix degradation capacity corresponds to the concentration of fibrin degradation products which are determined by means of ELISA (D dimer).\nThe fibrin gels were prepared in 24-well culture dishes from […] of fibrinogen (50 mg/ml) in PBS (pH 7.4), by 50 μl of thrombin (10 U/ml) and 50 μl of CaCl2 (150 mM) per well after incubation at 37° C. for 30 minutes. 2×10^5 breast carcinoma cells were seeded on said fibrin matrix in 1 ml of DMEM culture medium plus 10% fetal calf serum and 2 μg of Glu-plasminogen, and incubated for 4 h. The supernatant was then centrifuged, in order to remove the cells, and the fibrin degradation products were quantified by means of ELISA."}, "Tryptase": {"target": "Tryptase (Homo sapiens, UniProt Q15661)", "sequence (Q15661 31-275)": "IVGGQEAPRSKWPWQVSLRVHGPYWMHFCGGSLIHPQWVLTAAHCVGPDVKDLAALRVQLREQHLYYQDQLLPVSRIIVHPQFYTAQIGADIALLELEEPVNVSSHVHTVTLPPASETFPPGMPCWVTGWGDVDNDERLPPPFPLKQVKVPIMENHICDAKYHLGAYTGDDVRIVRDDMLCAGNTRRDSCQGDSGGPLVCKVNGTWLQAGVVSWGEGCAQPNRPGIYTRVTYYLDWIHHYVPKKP", "assay": "In vitro inhibition of serine proteases: tryptase", "type": "biochemical", "procedure": "as §1, §2"}, "Trypsin": {"target": "T3, Trypsin (Bos taurus, UniProt P00760)", "T3 construct": "gene PRSS1", "T3 sequence (P00760 24-246)": "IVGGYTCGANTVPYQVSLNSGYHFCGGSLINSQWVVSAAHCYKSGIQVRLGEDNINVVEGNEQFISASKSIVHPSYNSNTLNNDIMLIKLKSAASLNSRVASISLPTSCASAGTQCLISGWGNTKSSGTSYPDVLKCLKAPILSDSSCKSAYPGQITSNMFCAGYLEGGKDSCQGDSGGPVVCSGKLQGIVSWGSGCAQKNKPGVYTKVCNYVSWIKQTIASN", "assay": "In vitro inhibition of serine proteases: trypsin", "type": "biochemical", "procedure": "as §3"}, "Factor XIIa": {"target": "T4, Factor XIIa (Homo sapiens, UniProt P00748)", "T4 sequence (P00748 373-615 limits assumed)": "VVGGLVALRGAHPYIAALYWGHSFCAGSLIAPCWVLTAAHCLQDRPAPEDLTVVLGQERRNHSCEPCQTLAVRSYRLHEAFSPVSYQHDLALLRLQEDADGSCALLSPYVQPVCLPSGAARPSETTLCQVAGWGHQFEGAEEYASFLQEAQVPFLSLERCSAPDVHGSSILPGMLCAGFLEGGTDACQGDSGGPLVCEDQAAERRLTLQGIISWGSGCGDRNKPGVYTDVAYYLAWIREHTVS", "assay": "In vitro inhibition of serine proteases: factor XIIa", "type": "biochemical", "procedure": "as §1, §2"}}, "note": "Read-outs that look alike come from different tables or passages of the source."}
{"smiles": "CCOC(=O)N1CCN(C(=O)[C@H](Cc2cccc(C(=N)N)c2)NS(=O)(=O)c2c(C(C)C)cc(C(C)C)cc2C(C)C)CC1.Cl", "note": "[uPA inhibitor, Nα-2,4,6-Triisopropylphenylsulfonyl-(L)-3-amidinophenylalanine 4-ethoxycarbonylpiperazide hydrochloride]", "values": [{"measurement": "Ki", "setting": "Plasma kallikrein", "result": 7.2, "unit": "µM"}, {"measurement": "solubility", "setting": "[1]; addition of 5% DMSO", "result": "10^−3 mol/l"}, {"measurement": "solubility", "setting": "[1]; addition of 5% ethanol", "result": "2×10^−4 moll"}, {"measurement": "Ki", "setting": "[2]", "result": 4.9, "unit": "µM"}, {"measurement": "anti-metastatic effects in combination therapies (lymph nodes weight, macroscopic lung foci number)", "setting": "[3]; WX-UK1 and the cytostatic agents", "result": "additional anti-metastatic effects"}, {"measurement": "anti-metastatic effects in combination", "setting": "[3]; combined with either epirubicin and in particular with 5-FU", "result": "statistically significant additive anti-metastatic effects"}, {"measurement": "number of macroscopically detectable lung foci", "setting": "[3]; compared with 5-FU", "result": "equally effective"}, {"measurement": "number of macroscopically detectable lung foci", "setting": "[3]; compared with epirubicin or paclitaxel", "result": "more effectively reduced"}, {"measurement": "anti-tumor effects (tumor size development, final tumor weight)", "setting": "[3]; daily administration", "result": "Dose-dependent anti-tumor effects"}, {"measurement": "metastatic endpoints in combination", "setting": "[3]; plus epirubicin, paclitaxel or 5-FU", "result": "tended to provide additive benefits"}, {"measurement": "reducing lymphogenic spread as determined by lymph-node weight", "setting": "[3]; single agent, compared with epirubicin, paclitaxel or 5-FU alone", "result": "more or similarly active"}, {"measurement": "Ki", "setting": "Urokinase (sc-urokinase); in vitro inhibition of urokinase, 25° C, pH 8.0, 5% ethanol, read-out: Ki", "result": 410, "unit": "nM"}, {"measurement": "Ki", "setting": "Urokinase (sc-urokinase); read-out: Ki Urokinase", "result": 410, "unit": "nM"}, {"measurement": "weights of lung, liver, kidney and spleen", "setting": "[4]; 1 mg/kg i.p. daily, 4 weeks, compared to control animals", "result": "unchanged"}, {"measurement": "weight of the primary tumor", "setting": "[4]; 1 mg/kg i.p. daily, 4 weeks, p=0.003 vs naphthyl derivative (B) and control", "result": "significant reduction"}, {"measurement": "weight of the axillary lymph nodes", "setting": "[4]; 1 mg/kg i.p. daily, 4 weeks, p=0.005 vs naphthyl derivative (B) and control", "result": "significant reduction"}, {"measurement": "toxicity (body weight increase, organ weights)", "setting": "[4]; breast and pancreatic tumor models in rats, inhibitor-treated vs vehicle-treated groups", "result": "no indications of any considerable toxicity"}, {"measurement": "average tumor weights at the end of the treatment, reduced to % of vehicle-treated control", "setting": "[4]; i.p.", "result": 23, "unit": "%"}, {"measurement": "mean weights of the axillary lymph nodes, reduced to % of control", "setting": "[4]; i.p.", "result": 27, "unit": "%"}, {"measurement": "number of lung foci, reduced to % of control", "setting": "[4]; i.p.", "result": 9, "unit": "%"}, {"measurement": "number of metastatic lung foci", "setting": "[4]; rat breast cancer model, vs vehicle-treated controls", "result": "substantially reduced"}, {"measurement": "sizes of subcutaneous tumors", "setting": "[4]; rat pancreatic and breast cancer models, vs vehicle-treated controls", "result": "reduced"}, {"measurement": "average tumor weights at the end of the treatment, reduced to % of vehicle-treated control", "setting": "[4]; s.c.", "result": 37, "unit": "%"}, {"measurement": "mean weights of the axillary lymph nodes, reduced to % of control", "setting": "[4]; s.c.", "result": 48, "unit": "%"}, {"measurement": "number of lung foci, reduced to % of control", "setting": "[4]; s.c.", "result": 32, "unit": "%"}, {"measurement": "Ki", "setting": "Plasmin", "result": 390, "unit": "nM"}, {"measurement": "Ki", "setting": "Thrombin", "result": 490, "unit": "nM"}, {"measurement": "inhibition of fibrin matrix degradation by breast carcinoma cells", "setting": "[5]", "result": "significant inhibition"}, {"measurement": "Ki", "setting": "Tryptase", "result": 6.3, "unit": "µM"}, {"measurement": "Ki", "setting": "Trypsin", "result": 37, "unit": "nM"}, {"measurement": "Ki", "setting": "Factor XIIa", "result": 13, "unit": "µM"}]}
